{"source": "paper PMC9386018", "about": "“A lymphatic-absorbed multi-targeted kinase inhibitor for myelofibrosis therapy” (Nature Communications, 2022)", "assay": "Pharmacokinetic analysis of plasma after intravenous and oral dosing", "settings": "for concentration at 0.5 h / concentration at 1 h / concentration at 2 h / concentration at 4 h / concentration at 7 h / concentration at 24 h / half-life: female, CD-1, mouse", "note": "Where “and” joins values, the source holds several entries; their conditions need not be identical. Identical values can stand only once.", "data": [{"compound": "O=C(NOCCOCCOCCOCCC(=O)N1CCN(c2cnc3ccc(-c4cnc(Cl)c(NS(=O)(=O)c5ccc(F)cc5)c4)cc3n2)CC1)c1ccc(F)c(F)c1Nc1ccc(I)cc1F", "note": "[LP-182, N-(2-(2-(2-(3-(4-(7-(6-chloro-5-((4-fluorophenyl)sulfonamido)pyridin-3-yl)quinoxalin-2-yl)piperazin-1-yl)-3-oxopropoxy)ethoxy)ethoxy)ethoxy)-3,4-difluoro-2-((2-fluoro-4-iodophenyl)amino)benzamide]", "values": [{"measurement": "Concentration", "setting": "Supplementary Figure 6a, i.v., Time 24 h, individual replicates", "value": "7.68 ng/mL and 8.28 ng/mL"}, {"measurement": "Concentration", "setting": "Supplementary Figure 6a, p.o., Time 0.167 h, individual replicates", "value": "731 ng/mL and 1660 ng/mL and 900 ng/mL"}, {"measurement": "Concentration", "setting": "Supplementary Figure 6a, p.o., Time 0.5 h, individual replicates", "value": "2150 ng/mL and 2630 ng/mL"}, {"measurement": "Concentration", "setting": "Supplementary Figure 6a, p.o., Time 1 h, individual replicates", "value": "1580 ng/mL and 1950 ng/mL"}, {"measurement": "Concentration", "setting": "Supplementary Figure 6a, p.o., Time 2 h, individual replicates", "value": "424 ng/mL and 145 ng/mL and 74.1 ng/mL"}, {"measurement": "Concentration", "setting": "Supplementary Figure 6a, p.o., Time 4 h, individual replicates", "value": "146 ng/mL and 522 ng/mL and 339 ng/mL"}, {"measurement": "Concentration", "setting": "Supplementary Figure 6a, p.o., Time 7 h, individual replicates", "value": "331 ng/mL and 97.6 ng/mL and 1560 ng/mL"}, {"measurement": "Concentration", "setting": "Supplementary Figure 6a, p.o., Time 16 h, individual replicates", "value": "79.2 ng/mL and 205 ng/mL and 265 ng/mL"}, {"measurement": "Concentration", "setting": "Supplementary Figure 6a, p.o., Time 24 h, individual replicates", "value": "401 ng/mL and 114 ng/mL and 295 ng/mL"}, {"measurement": "concentration at 0.5 h", "setting": "plasma, iv, 15 mg kg^−1, Concentration (ng/mL), mice, single i.v. LP-182 15 mg kg^−1, 0.5 h, analyte = label, individual animals", "value": 1180, "unit": "ng/mL"}, {"measurement": "concentration at 1 h", "setting": "plasma, iv, 15 mg kg^−1, Concentration (ng/mL), mice, single i.v. LP-182 15 mg kg^−1, 1 h, analyte = label, individual animals", "value": 524, "unit": "ng/mL"}, {"measurement": "concentration at 2 h", "setting": "plasma, iv, 15 mg kg^−1, Concentration (ng/mL), mice, single i.v. LP-182 15 mg kg^−1, 2 h, analyte = label, individual animals", "value": 275, "unit": "ng/mL"}, {"measurement": "concentration at 4 h", "setting": "plasma, iv, 15 mg kg^−1, Concentration (ng/mL), mice, single i.v. LP-182 15 mg kg^−1, 4 h, analyte = label, individual animals", "value": 83.2, "unit": "ng/mL"}, {"measurement": "concentration at 7 h", "setting": "plasma, iv, 15 mg kg^−1, Concentration (ng/mL), mice, single i.v. LP-182 15 mg kg^−1, 7 h, analyte = label, individual animals", "value": 29.2, "unit": "ng/mL"}, {"measurement": "concentration at 24 h", "setting": "plasma, iv, 15 mg kg^−1, Concentration (ng/mL), mice, single i.v. LP-182 15 mg kg^−1, 24 h, analyte = label, individual animals", "value": 9.67, "unit": "ng/mL"}, {"measurement": "concentration at 0.5 h", "setting": "plasma, iv, 15 mg kg^−1, Concentration, Supplementary Figure 6a, Time 0.5 h, individual replicates", "value": 1180, "unit": "ng/mL"}, {"measurement": "concentration at 1 h", "setting": "plasma, iv, 15 mg kg^−1, Concentration, Supplementary Figure 6a, Time 1 h, individual replicates", "value": 524, "unit": "ng/mL"}, {"measurement": "concentration at 2 h", "setting": "plasma, iv, 15 mg kg^−1, Concentration, Supplementary Figure 6a, Time 2 h, individual replicates", "value": 275, "unit": "ng/mL"}, {"measurement": "concentration at 4 h", "setting": "plasma, iv, 15 mg kg^−1, Concentration, Supplementary Figure 6a, Time 4 h, individual replicates", "value": 83.2, "unit": "ng/mL"}, {"measurement": "concentration at 7 h", "setting": "plasma, iv, 15 mg kg^−1, Concentration, Supplementary Figure 6a, Time 7 h, individual replicates", "value": 29.2, "unit": "ng/mL"}, {"measurement": "concentration at 24 h", "setting": "plasma, iv, 15 mg kg^−1, Concentration, Supplementary Figure 6a, Time 24 h, individual replicates", "value": 9.67, "unit": "ng/mL"}, {"measurement": "half-life", "setting": "plasma, iv, 15 mg/kg", "value": 7.9, "unit": "h"}, {"measurement": "concentration at 0.5 h", "setting": "plasma, po, 400 mg kg^−1, Concentration (ng/mL), mice, single p.o. LP-182 400 mg kg^−1, 0.5 h, analyte = label, individual animals", "value": 2530, "unit": "ng/mL"}, {"measurement": "concentration at 1 h", "setting": "plasma, po, 400 mg kg^−1, Concentration (ng/mL), mice, single p.o. LP-182 400 mg kg^−1, 1 h, analyte = label, individual animals", "value": 1240, "unit": "ng/mL"}, {"measurement": "concentration at 0.5 h", "setting": "plasma, po, 400 mg kg^−1, Concentration, Supplementary Figure 6a, Time 0.5 h, individual replicates", "value": 2530, "unit": "ng/mL"}, {"measurement": "concentration at 1 h", "setting": "plasma, po, 400 mg kg^−1, Concentration, Supplementary Figure 6a, Time 1 h, individual replicates", "value": 1240, "unit": "ng/mL"}, {"measurement": "half-life", "setting": "plasma, po, 400 mg/kg", "value": 12.7, "unit": "h"}, {"measurement": "plasma level maintained over 24 h", "setting": "mice, after oral LP-182 400 mg kg^−1, analyte = label", "value": "~ 300 ng mL^-1"}, {"measurement": "Concentration", "setting": "mice, plasma, single i.v. LP-182 15 mg kg^−1, 0.167 h, analyte = label, individual animals", "value": "11100 ng/mL and 8270 ng/mL and 5220 ng/mL"}, {"measurement": "Concentration", "setting": "mice, plasma, single i.v. LP-182 15 mg kg^−1, 0.5 h, analyte = label, individual animals", "value": "807 ng/mL and 646 ng/mL"}, {"measurement": "Concentration", "setting": "mice, plasma, single i.v. LP-182 15 mg kg^−1, 1 h, analyte = label, individual animals", "value": "451 ng/mL and 857 ng/mL"}, {"measurement": "Concentration", "setting": "mice, plasma, single i.v. LP-182 15 mg kg^−1, 2 h, analyte = label, individual animals", "value": "275 ng/mL and 179 ng/mL"}, {"measurement": "Concentration", "setting": "mice, plasma, single i.v. LP-182 15 mg kg^−1, 4 h, analyte = label, individual animals", "value": "141 ng/mL and 75.9 ng/mL"}, {"measurement": "Concentration", "setting": "mice, plasma, single i.v. LP-182 15 mg kg^−1, 7 h, analyte = label, individual animals", "value": "51.4 ng/mL and 34.3 ng/mL"}, {"measurement": "Concentration", "setting": "mice, plasma, single i.v. LP-182 15 mg kg^−1, 16 h, analyte = label, individual animals", "value": "30.6 ng/mL and 29.3 ng/mL and 5.58 ng/mL"}, {"measurement": "Concentration", "setting": "mice, plasma, single i.v. LP-182 15 mg kg^−1, 24 h, analyte = label, individual animals", "value": "7.68 ng/mL and 8.28 ng/mL"}, {"measurement": "Concentration", "setting": "mice, plasma, single p.o. LP-182 400 mg kg^−1, 0.167 h, analyte = label, individual animals", "value": "731 ng/mL and 1660 ng/mL and 900 ng/mL"}, {"measurement": "Concentration", "setting": "mice, plasma, single p.o. LP-182 400 mg kg^−1, 0.5 h, analyte = label, individual animals", "value": "2150 ng/mL and 2630 ng/mL"}, {"measurement": "Concentration", "setting": "mice, plasma, single p.o. LP-182 400 mg kg^−1, 1 h, analyte = label, individual animals", "value": "1580 ng/mL and 1950 ng/mL"}, {"measurement": "Concentration", "setting": "mice, plasma, single p.o. LP-182 400 mg kg^−1, 2 h, analyte = label, individual animals", "value": "424 ng/mL and 145 ng/mL and 74.1 ng/mL"}, {"measurement": "Concentration", "setting": "mice, plasma, single p.o. LP-182 400 mg kg^−1, 4 h, analyte = label, individual animals", "value": "146 ng/mL and 522 ng/mL and 339 ng/mL"}, {"measurement": "Concentration", "setting": "mice, plasma, single p.o. LP-182 400 mg kg^−1, 7 h, analyte = label, individual animals", "value": "331 ng/mL and 97.6 ng/mL and 1560 ng/mL"}, {"measurement": "Concentration", "setting": "mice, plasma, single p.o. LP-182 400 mg kg^−1, 16 h, analyte = label, individual animals", "value": "79.2 ng/mL and 205 ng/mL and 265 ng/mL"}, {"measurement": "Concentration", "setting": "mice, plasma, single p.o. LP-182 400 mg kg^−1, 24 h, analyte = label, individual animals", "value": "401 ng/mL and 114 ng/mL and 295 ng/mL"}]}]}
